Source: article PMC9437215, “Synthesis and antibacterial activity evaluation of N (7) position-modified balofloxacins” (Frontiers in Chemistry, 2022)
≈ marks a conversion by molar mass, not a printed value. Entries after “also recorded” stand apart in the source; their conditions may differ. Where two headings read alike, the source gives them in different places.

Tests used:
[1] = tested on: MRSA, P. aeruginosa, and E. coli; test: MIC and MBC values stated over the three strains together; type: cell-based
Description: (§1) The three strains of MRSA, P. aeruginosa, and E. coli used in this experiment were from clinical isolates, which were provided by the People’s Liberation Army 304 Hospital.
(§2) To evaluate the antibacterial activities of newly synthesized N (7) position modified fluoroquinolones, the minimum inhibitory (MIC) and bactericidal (MBC) concentrations of these compounds toward bacteria were measured.

P. aeruginosa = test: MIC and MBC determinations in vitro, P. aeruginosa; type: cell-based; conditions: P. aeruginosa clinical isolate; for MIC: 24 h culture; for MBC: solid medium 24 h
Description: as §1, §2

E. coli = test: MIC and MBC determinations in vitro, E. coli; type: cell-based; conditions: Escherichia coli, E. coli clinical isolate; for MIC: 24 h culture; for MBC: solid medium 24 h
Description: as §1, §2

MRSA [2] = test: MIC and MBC determinations in vitro, MRSA; type: cell-based; conditions: MRSA clinical isolate; for MIC: 24 h culture; for MBC: solid medium 24 h, read-out: MBC
Description: as §1, §2

Hemolytic activity = type: cell-based, rabbit; conditions: male, New Zealand white, rabbit, red cell suspension from rabbit blood; even at high concentrations (> 10^5 × MIC), 37°C, 24 h; read-out: hemolysis rate
Description: (§3) The animal experiment was approved by the Laboratory Animal Management Committee/Laboratory Animal Welfare Ethics Committee, Institute of Radiation Medicine, Chinese Academy of Medical Sciences (No. IRM-DWLL-2019153). Hemolysis anemia is one of the major adverse reactions of antibiotics. To assess the blood compatibility of N (7) position modified balofloxacin, the hemolytic activity of 2-e was tested. Fresh rabbit blood, obtained from the ear vein of a male New Zealand white rabbit, was diluted at a ratio of 1:20 in volume with PBS, centrifuged and resuspended in PBS at 1,000 rpm for 5 min to form an experimental red cell suspension. 500 μL drug 2-e solution and equal volumes of blood suspension were mixed in which the final drug concentration was 500, 250, 125, 62.5, 31.25, 15.62, 7.81, 3.91, 1.95, and 0.98 μg/ml, respectively, these mixtures were incubated at 37°C for 24 h. The positive control group was an equal volume of diluted blood cells mixed with an equal volume of 0.5% Triton X-100. The negative control group was mixed with an equal volume of PBS and diluted blood cells. After incubation, the mixture in a series of centrifuge tubes was centrifuged under the same conditions, and 200 μL of the supernatant was aspirated and transferred to a 96-well plate. The release of hemoglobin from the main contents was measured at A405nm using a microplate reader (Thermo, Varioskan Flash 3001, United States). Each data were from the triplicate experiments. The percentage of hemolysis in the hemolysis test was calculated according to the following formula: %Hemolysis=(A405 test sample−A405 negative control)/(A405 positive control−A405 negative control).

MRSA [3] = test: Time-dependent antibacterial effects in vitro; type: cell-based; conditions: for antibacterial activity in early and late stages of the exponential growth phase: 10 × MIC; for log10 CFU after the first 8 h: early exponential phase, start log10 CFU 5.5, 10 × MIC
Description: In order to further verify the antibacterial effect of the representative compound 2-e, time-dependent bactericidal activity of 2-e against MRSA was determined. This study referred to the reported methods ([Ling et al., 2015]). MRSA was cultured overnight in LB liquid and the bacterial solution at 10^9 CFU/ml tested on the machine was diluted at 1:10,000 with LB liquid medium and cultured at 37°C, 180 rpm. […] Time-dependent bacterial colonies were evaluated at 4 or 8 h intervals as follows: 100 μL of the mixture at the current time point was taken and centrifuged at 10,000 rpm for 2 min, and the pellet formed was dispersed with PBS, which was diluted by the ten-fold dilution method. 100 μL of bacterial dilution was evenly spread on LB solid medium at 37°C for 24 h. The colonies counted, according to national standards, accounted for the drug’s time-dependent antibacterial results. The same experimental operation was repeated three times independently.

MRSA cells = test: Cell wall damage monitored by atomic force microscopy (AFM); type: cell-based; conditions: 10 μM, 37°C, 30 min
Description: To observe the structural changes in the bacterial surface after the administration of balofloxacin derivative 2-e, atomic force microscope assay was performed. The bacterial suspension was diluted with LB liquid medium to 10^7 CFU/ml. The bacterial solution and the drug solution were mixed in an equal volume so that the concentration of 1e and 2-e was 10 μM in the final solution, respectively. And after mixing, it was incubated at 37°C for 30 min, together with the control group in the same way. After that, the sample was centrifuged at 9,000 rpm for 5 min and the supernatant was discarded, while the precipitate was washed twice with physiological saline in the same volume and centrifuged at 9,000 rpm for 5 min. Finally, the bacterial sample, prepared by dispersion in the same volume of physiological saline solution, was dropped onto the surface of the mica plate (about 0.5 cm^2), dried naturally at ambient temperature, and scanned by an atomic force microscope.

L-02 = test: Cell viability assay (MTS), L-02; type: cell-based, human; conditions: L-02
Description: (§4) To investigate the biocompatibility of the synthesized balofloxacin derivative, the cytoxicity of 2-e on human normal cells (3T3, L-02) and tumor cells (BEL-7402, H520, A549, and MCF-7) was studied. As an experimental example human liver cells (L-02) growing in the log phase, were plated in the 96-well plate at a density of 5000 cells/well. The cells were cultured at 37°C for 24 h under 5% CO2 medium. Then different concentrations of 1e and 2-e were added, the L-02 cells were cultured at 37°C for 48 h under a 5% CO2 atmosphere. Then the medium was aspirated, 100 μL of serum-free medium and 20 μL of MTS were added into each well, and L-02 was incubated at 37°C for 1 h under a 5% CO2 atmosphere. After that, the absorbance of the solutions at 490 nm was obtained using a microplate reader and calculated cell survival rate according to the following formula: Cell survive rate(%)=(ODtest−ODblank)/(ODcontrol−ODblank)×100%.

[4] = Cell viability assay (MTS), L-02; type: cell-based, human; conditions: human, L-02 cells (normal liver cells); L-02, 100 μmol/L, 48 h
Description: as §4

MCF-7 = test: Cell viability assay (MTS), MCF-7; type: cell-based, human; conditions: MCF-7
Description: as §4

[5] = Cell viability assay (MTS), MCF-7; type: cell-based, human; conditions: human, MCF-7 tumor cells; MCF-7, 100 μmol/L, 48 h
Description: as §4

[6] = tested on: rabbit red cell suspension; test: Hemolytic activity; type: cell-based
Description: as §3

3T3 = test: Cell viability assay (MTS), 3T3; type: cell-based; conditions: 3T3
Description: as §4

[7] = Cell viability assay (MTS), 3T3; type: cell-based; conditions: mouse, 3T3 cells; 3T3, 100 μmol/L, 48 h
Description: as §4

H520 = test: Cell viability assay (MTS), H520; type: cell-based, human; conditions: H520
Description: as §4

[8] = Cell viability assay (MTS), H520; type: cell-based, human; conditions: human, H520 tumor cells; H520, 100 μmol/L, 48 h
Description: as §4

A549 = test: Cell viability assay (MTS), A549; type: cell-based, human; conditions: A549
Description: as §4

[9] = Cell viability assay (MTS), A549; type: cell-based, human; conditions: human, A549 tumor cells; A549, 100 μmol/L, 48 h
Description: as §4

BEL-7402 = test: Cell viability assay (MTS), BEL-7402; type: cell-based, human; conditions: BEL-7402
Description: as §4

[10] = Cell viability assay (MTS), BEL-7402; type: cell-based, human; conditions: human, BEL-7402 tumor cells; BEL-7402, 100 μmol/L, 48 h
Description: as §4

[11] = range over MIC and MBC and the three strains, read-out: MIC and MBC values
[12] = Pseudomonas aeruginosa, read-out: MIC
[13] = Pseudomonas aeruginosa, read-out: MBC
[14] = Staphylococcus aureus, MRSA, 24 h, read-out: MIC
[15] = Staphylococcus aureus, MRSA, 24 h

| SMILES | melting point [°C] | MIC (P. aeruginosa; [12]) [mg/L] | MIC (E. coli) [mg/L] | MIC (MRSA [2]; [14]) [mg/L] | MIC (P. aeruginosa) [mg/L] | MBC [1, 11] [mg/L] | MBC (P. aeruginosa; [13]) [mg/L] | MBC (E. coli) [mg/L] | MBC (MRSA [2]; [15]) [mg/L] | hemolysis at 24 h (Hemolytic activity) [%] | antibacterial activity in early and late stages of the exponential growth phase (MRSA [3]; MRSA) | log10 CFU after the first 8 h (MRSA [3]) | MBC (P. aeruginosa) [mg/L] | structural change of MRSA cells in AFM image (MRSA cells) | further results |
| --- | --- | --- | --- | --- | --- | --- | --- | --- | --- | --- | --- | --- | --- | --- | --- |
| CC(=O)NC1(c2c(F)cc3c(=O)c(C(=O)O)cn4c3c2OCC4C)CC1 (stereo not shown) [Compound 2-g, 10-(1-Acetamidocyclopropyl)-9-fluoro-3-methyl-7-oxo-2,3-dihydro-7H-[1,4]oxazino[2,3,4-ij]quinoline-6-carboxylic acid] | 273.1 to 274.1 | 25 (≈ 69.4 µM) | 25 (≈ 69.4 µM) | 25 (≈ 69.4 µM) |  | 25 to 50 | 50 (≈ 139 µM) | 50 (≈ 139 µM) | 50 (≈ 139 µM) |  |  |  |  |  |  |
| CNC1CCCN(c2c(F)cc3c(=O)c(C(=O)O)cn(C4CC4)c3c2OC)C1 (stereo not shown) [Compound 1e, balofloxacin] |  | 0.078 (≈ 0.2 µM) | 0.078 (≈ 0.2 µM) | 0.078 (≈ 0.2 µM) | 0.078 (≈ 0.2 µM) |  | 0.156 (≈ 0.401 µM) | 0.156 (≈ 0.401 µM) | 0.156 (≈ 0.401 µM) | ≤ 5 | good antibacterial activity | 0 | 0.156 (≈ 0.401 µM) | ruptured and there was an outflow of cellular contents |  |
| C[C@H]1COc2c(C3(N)CC3)c(F)cc3c(=O)c(C(=O)O)cn1c23 [Compound 1g, pazufloxacin, reference compound] |  | 0.313 (≈ 0.983 µM) | 0.156 (≈ 0.49 µM) | 0.156 (≈ 0.49 µM) |  | 0.156 to 0.625 | 0.625 (≈ 1.96 µM) | 0.313 (≈ 0.983 µM) | 0.313 (≈ 0.983 µM) |  |  |  |  |  |  |

Continued, in another order:

| melting point [°C] | MIC (P. aeruginosa; [12]) [mg/L] | MIC (E. coli) [mg/L] | MIC (MRSA [2]; [14]) [mg/L] | MIC (P. aeruginosa) [mg/L] | SMILES | MBC [1, 11] [mg/L] | MBC (P. aeruginosa; [13]) [mg/L] | MBC (E. coli) [mg/L] | MBC (MRSA [2]; [15]) [mg/L] | hemolysis at 24 h (Hemolytic activity) [%] | antibacterial activity in early and late stages of the exponential growth phase (MRSA [3]; MRSA) | log10 CFU after the first 8 h (MRSA [3]) | MBC (P. aeruginosa) [mg/L] | structural change of MRSA cells in AFM image (MRSA cells) | further results |
| --- | --- | --- | --- | --- | --- | --- | --- | --- | --- | --- | --- | --- | --- | --- | --- |
| 201.6 to 202.3 | 0.039 (≈ 0.0904 µM) | 2.5 (≈ 5.79 µM) | 0.0195 to 0.039 (≈ 0.0452 to 0.0904 µM) | 0.039 (≈ 0.0904 µM) | COc1c(N2CCCC(N(C)C(C)=O)C2)c(F)cc2c(=O)c(C(=O)O)cn(C3CC3)c12 (stereo not shown) [Compound 2-e, 1-Cyclopropyl-6-fluoro-8-methoxy-7-(3-(N-methylacetamido)piperidin-1-yl)-4-oxo-1,4-dihydroquinoline-3-carboxylic acid] |  | 0.078 (≈ 0.181 µM) | 5 (≈ 11.6 µM) | 0.039 (≈ 0.0904 µM) | ≤ 5 | good antibacterial activity | 0 | 0.078 (≈ 0.181 µM) | could effectively destroy the membrane and wall of MRSA cells; also recorded: complete discharge of their contents and substantial fragmentation | toxicity toward cell line (L-02): low toxicity; also recorded: did not show toxicity; viability at 48 h, 100 μmol/L [4]: ≥ 80%; toxicity toward cell line (MCF-7): low toxicity; viability at 48 h, 100 μmol/L [5]: ≥ 80%; hemolytic activity [6]: not hemolytic; MBC ([1]; bound over MIC and MBC, converted to μmol/L, read-out: MIC and MBC): < 12 µM; toxicity toward cell line (3T3): low toxicity; viability at 48 h, 100 μmol/L [7]: ≥ 80%; time-dependent antibacterial effect, early logarithmic growth phase (MRSA [3]; MRSA): bactericidal effects occurred; time-dependent antibacterial effect, late logarithmic growth phase (MRSA [3]; MRSA): bacterial inhibition occurred; toxicity toward cell line (H520): low toxicity; viability at 48 h, 100 μmol/L [8]: ≥ 80%; toxicity toward cell line (A549): low toxicity; viability at 48 h, 100 μmol/L [9]: ≥ 80%; MIC (MRSA [2]): 0.0195 mg/L (≈ 0.0452 µM); toxicity toward cell line (BEL-7402): low toxicity; viability at 48 h, 100 μmol/L [10]: ≥ 80% |
| 104.6 to 106.5 | 0.078 (≈ 0.17 µM) | 10 (≈ 21.9 µM) | 0.039 (≈ 0.0852 µM) |  | COc1c(N2CCCC(N(C)C(=O)C3CC3)C2)c(F)cc2c(=O)c(C(=O)O)cn(C3CC3)c12 (stereo not shown) [Compound 11-e, 1-Cyclopropyl-6-fluoro-8-methoxy-7-(3-(N-methylcyclopropanecarboxamido)piperidin-1-yl)-4-oxo-1,4-dihydroquinoline-3-carboxylic acid] |  | 0.156 (≈ 0.341 µM) | 20 (≈ 43.7 µM) | 0.078 (≈ 0.17 µM) |  |  |  |  |  |  |
